Consider 2 compounds from patent EP4495227A1, “CO-CULTURES OF ORGANOIDS AND STROMAL CELLS” (HUB Organoids IP B.V., priority 2023, dated 2025).

One experiment has as its system caspase 3/7 activity. The experiment in a line: Caspase-Glo assay of apoptosis in organoid-fibroblast co-cultures challenged with TNF and IFNγ. The class given is cell-based, human. The settings on record: 10 µM tofacitinib; upon exposure to inflammatory cytokines; Figure 5B; measured in accordance with Example 6. Here is the method: (§1) In Examples 4-9, fibroblast cultures, organoid cultures, and co-cultures of the fibroblasts and organoids, were prepared according to Examples 1-2. OSM (1 ng/mL) and IL-1β (1 ng/mL) were added to the co-cultures according to Example 3 where "proinflammatory stimuli" or "proinflammatory stimulation" are specified in Examples 4-9. Co-cultures were then incubated on plates for 72 hours at 37°C and 5% CO2 prior to cytokine or caspase analysis, or for 96 hours at 37°C and 5% CO2 prior to imaging analysis.
72 hours after organoids and fibroblasts were combined in co-culture, apoptosis in co-culture was triggered using inflammatory stimuli (in the form of damage-inducing cytokines), and measured 24 hours later, in co-cultures prepared using proinflammatory stimuli and in co-cultures not prepared using proinflammatory stimuli.
Stock solutions of TNF and IFNγ were diluted 1:1 with 0.6% Tween in PBS, and were added to the co-cultures at concentrations of 15 ng/mL and 15 ng/mL respectively. Plates were then incubated for 24 hours.
Apoptosis was assessed using a Caspase-Glo assay (e.g. Promega) to determine relative caspase 3/7 activity. Briefly, 95 µL of room-temperature caspase reagent was added to each plate. Plates were then shaken for 1 minute before incubation in the dark at room temperature for 30 minutes. […]

For experiment [1], the system named is co-cultures of the fibroblasts and organoids. Nature of the experiment: Imaging of organoid morphology and area in organoid-fibroblast co-cultures (Calcein AM stain). The settings on record: 10 µM tofacitinib; Figure 5A; measured in accordance with Example 4. The class given is cell-based, human. Here is the method:
as §1
Organoids in co-culture were first stained with Calcein AM. 48 hours after the organoids and fibroblasts were combined in co-culture, 50 µL DMSO was added to a vial of Calcein AM and mixed. 88 µL of the mixture was added to 4,312 µL of Ad-DF+++ media. 10 µL of the final Calcein AM mixture was added to co-cultures before 5-10 seconds of shaking in a Tecan D300. Plates were then incubated for 2 hours at 37°C and 5% CO2. Imaging were then performed to assess organoid morphology.

Experiment [2] has as its system ALK-1, -2, -3, -6 and MAPK activity. The settings on record: Tocris catalog description; cited from earlier work.
The target of experiment [3] is type I nodal receptor ALK7. The settings on record: Tocris catalog description; cited from earlier work.
The target of experiment [4] is type I activin/nodal receptor ALK4. The settings on record: Tocris catalog description; cited from earlier work.

The structures appear in SMILES notation.

Consider `C[C@@H]1CCN(C(=O)CC#N)C[C@@H]1N(C)c1ncnc2[nH]ccc12` [tofacitinib], for which, in the experiment on caspase 3/7 activity, the caspase activity entry was “greatly diminishes”. Besides, the change in morphology entry in experiment [1] was “small change”.
With `Cc1cccc(-c2nn(C(=S)Nc3ccccc3)cc2-c2ccnc3ccccc23)n1` [A83-01], the “inhibition of ALK-1, -2, -3, -6 and MAPK activity” value in experiment [2] is given as “only weakly inhibits”. Also, the IC50 was 7.5 nM in experiment [3] and 45 nM in experiment [4].

By IC50 is commonly meant the concentration at which inhibition is half-maximal.
